{
  "source": "paper PMC8480901",
  "about": "(PLoS ONE, 2021)",
  "test_system": "human PBMCs",
  "test": "LPS-induced cytokine and chemokine levels in human PBMC supernatant (Luminex, ELISA)",
  "type": "cell-based",
  "conditions": "LPS-stimulated PBMC supernatant; for CCl2, Mean / CXCL1, Mean / CXCL2, Mean / MMP9, Mean: sample size 2; for CCl2, individual value / CXCL1, individual value / CXCL2, individual value / MMP9, individual value: single replicate",
  "note": "Several values for one entry are separate records, joined by “and”; a condition that tells them apart may be missing. Equal entries are not always repeated.",
  "data": [
    {"smiles": "C[C@@H]1C[C@H]2[C@@H]3CCC4=CC(=O)C=C[C@]4(C)[C@@]3(F)[C@@H](O)C[C@]2(C)[C@@]1(O)C(=O)CO", "note": "[Dexamethasone]", "values": [
      {"measurement": "CCl2, % reduction", "setting": "0.0003 µM", "value": -4.68, "unit": "%"},
      {"measurement": "CXCL1 % reduction", "setting": "0.0003 µM", "value": -4, "unit": "%"},
      {"measurement": "CXCL2 % reduction", "setting": "0.0003 µM", "value": 4, "unit": "%"},
      {"measurement": "MMP9 % reduction", "setting": "0.0003 µM", "value": 3.74, "unit": "%"},
      {"measurement": "CCl2, Mean", "setting": "0.0003 µM", "value": 1323, "unit": "pg/mL"},
      {"measurement": "CXCL1, Mean", "setting": "0.0003 µM", "value": 6192, "unit": "pg/mL"},
      {"measurement": "CXCL2, Mean", "setting": "0.0003 µM", "value": 4849, "unit": "pg/mL"},
      {"measurement": "MMP9, Mean", "setting": "0.0003 µM", "value": 2934, "unit": "pg/mL"},
      {"measurement": "CCl2, individual value", "setting": "0.0003 µM", "value": "1383 pg/mL and 1264 pg/mL"},
      {"measurement": "CXCL1, individual value", "setting": "0.0003 µM", "value": "6146 pg/mL and 6238 pg/mL"},
      {"measurement": "CXCL2, individual value", "setting": "0.0003 µM", "value": "4762 pg/mL and 4936 pg/mL"},
      {"measurement": "MMP9, individual value", "setting": "0.0003 µM", "value": "2852 pg/mL and 3016 pg/mL"},
      {"measurement": "CCl2, % reduction", "setting": "0.001 µM", "value": 0.423, "unit": "%"},
      {"measurement": "CXCL1 % reduction", "setting": "0.001 µM", "value": 1.28, "unit": "%"},
      {"measurement": "CXCL2 % reduction", "setting": "0.001 µM", "value": 3, "unit": "%"},
      {"measurement": "MMP9 % reduction", "setting": "0.001 µM", "value": 7, "unit": "%"},
      {"measurement": "CCl2, Mean", "setting": "0.001 µM", "value": 1261, "unit": "pg/mL"},
      {"measurement": "CXCL1, Mean", "setting": "0.001 µM", "value": 5877, "unit": "pg/mL"},
      {"measurement": "CXCL2, Mean", "setting": "0.001 µM", "value": 4905, "unit": "pg/mL"},
      {"measurement": "MMP9, Mean", "setting": "0.001 µM", "value": 2887, "unit": "pg/mL"},
      {"measurement": "CCl2, individual value", "setting": "0.001 µM", "value": "1275 pg/mL and 1246 pg/mL"},
      {"measurement": "CXCL1, individual value", "setting": "0.001 µM", "value": "5806 pg/mL and 5947 pg/mL"},
      {"measurement": "CXCL2, individual value", "setting": "0.001 µM", "value": "4830 pg/mL and 4980 pg/mL"},
      {"measurement": "MMP9, individual value", "setting": "0.001 µM", "value": "2894 pg/mL and 2879 pg/mL"},
      {"measurement": "CCl2, % reduction", "setting": "0.003 µM", "value": 17, "unit": "%"},
      {"measurement": "CXCL1 % reduction", "setting": "0.003 µM", "value": 6, "unit": "%"},
      {"measurement": "CXCL2 % reduction", "setting": "0.003 µM", "value": 4, "unit": "%"},
      {"measurement": "MMP9 % reduction", "setting": "0.003 µM", "value": 16, "unit": "%"},
      {"measurement": "CCl2, Mean", "setting": "0.003 µM", "value": 1056, "unit": "pg/mL"},
      {"measurement": "CXCL1, Mean", "setting": "0.003 µM", "value": 5588, "unit": "pg/mL"},
      {"measurement": "CXCL2, Mean", "setting": "0.003 µM", "value": 4851, "unit": "pg/mL"},
      {"measurement": "MMP9, Mean", "setting": "0.003 µM", "value": 2739, "unit": "pg/mL"},
      {"measurement": "CCl2, individual value", "setting": "0.003 µM", "value": "1044 pg/mL and 1067 pg/mL"},
      {"measurement": "CXCL1, individual value", "setting": "0.003 µM", "value": "5506 pg/mL and 5671 pg/mL"},
      {"measurement": "CXCL2, individual value", "setting": "0.003 µM", "value": "4888 pg/mL and 4814 pg/mL"},
      {"measurement": "MMP9, individual value", "setting": "0.003 µM", "value": "2727 pg/mL and 2751 pg/mL"},
      {"measurement": "CCl2, % reduction", "setting": "0.01 µM", "value": 33, "unit": "%"},
      {"measurement": "CXCL1 % reduction", "setting": "0.01 µM", "value": 16, "unit": "%"},
      {"measurement": "CXCL2 % reduction", "setting": "0.01 µM", "value": 17, "unit": "%"},
      {"measurement": "MMP9 % reduction", "setting": "0.01 µM", "value": 23, "unit": "%"},
      {"measurement": "CCl2, Mean", "setting": "0.01 µM", "value": 860, "unit": "pg/mL"},
      {"measurement": "CXCL1, Mean", "setting": "0.01 µM", "value": 5032, "unit": "pg/mL"},
      {"measurement": "CXCL2, Mean", "setting": "0.01 µM", "value": 4217, "unit": "pg/mL"},
      {"measurement": "MMP9, Mean", "setting": "0.01 µM", "value": 2621, "unit": "pg/mL"},
      {"measurement": "CCl2, individual value", "setting": "0.01 µM", "value": "863 pg/mL and 858 pg/mL"},
      {"measurement": "CXCL1, individual value", "setting": "0.01 µM", "value": "4889 pg/mL and 5174 pg/mL"},
      {"measurement": "CXCL2, individual value", "setting": "0.01 µM", "value": "4342 pg/mL and 4092 pg/mL"},
      {"measurement": "MMP9, individual value", "setting": "0.01 µM", "value": "2587 pg/mL and 2655 pg/mL"},
      {"measurement": "CCl2, % reduction", "setting": "0.03 µM", "value": 46, "unit": "%"},
      {"measurement": "CXCL1 % reduction", "setting": "0.03 µM", "value": 25, "unit": "%"},
      {"measurement": "CXCL2 % reduction", "setting": "0.03 µM", "value": 30, "unit": "%"},
      {"measurement": "MMP9 % reduction", "setting": "0.03 µM", "value": 24, "unit": "%"},
      {"measurement": "CCl2, Mean", "setting": "0.03 µM", "value": 701, "unit": "pg/mL"},
      {"measurement": "CXCL1, Mean", "setting": "0.03 µM", "value": 4474, "unit": "pg/mL"},
      {"measurement": "CXCL2, Mean", "setting": "0.03 µM", "value": 3565, "unit": "pg/mL"},
      {"measurement": "MMP9, Mean", "setting": "0.03 µM", "value": 2601, "unit": "pg/mL"},
      {"measurement": "CCl2, individual value", "setting": "0.03 µM", "value": "757 pg/mL and 644 pg/mL"},
      {"measurement": "CXCL1, individual value", "setting": "0.03 µM", "value": "4471 pg/mL and 4477 pg/mL"},
      {"measurement": "CXCL2, individual value", "setting": "0.03 µM", "value": "3377 pg/mL and 3753 pg/mL"},
      {"measurement": "MMP9, individual value", "setting": "0.03 µM", "value": "2572 pg/mL and 2630 pg/mL"},
      {"measurement": "CCl2, % reduction", "setting": "0.1 µM", "value": 56, "unit": "%"},
      {"measurement": "CXCL1 % reduction", "setting": "0.1 µM", "value": 35, "unit": "%"},
      {"measurement": "CXCL2 % reduction", "setting": "0.1 µM", "value": 40, "unit": "%"},
      {"measurement": "MMP9 % reduction", "setting": "0.1 µM", "value": 39, "unit": "%"},
      {"measurement": "CCl2, Mean", "setting": "0.1 µM", "value": 584, "unit": "pg/mL"},
      {"measurement": "CXCL1, Mean", "setting": "0.1 µM", "value": 3861, "unit": "pg/mL"},
      {"measurement": "CXCL2, Mean", "setting": "0.1 µM", "value": 3024, "unit": "pg/mL"},
      {"measurement": "MMP9, Mean", "setting": "0.1 µM", "value": 2364, "unit": "pg/mL"},
      {"measurement": "CCl2, individual value", "setting": "0.1 µM", "value": "488 pg/mL and 679 pg/mL"},
      {"measurement": "CXCL1, individual value", "setting": "0.1 µM", "value": "3279 pg/mL and 4443 pg/mL"},
      {"measurement": "CXCL2, individual value", "setting": "0.1 µM", "value": "2644 pg/mL and 3404 pg/mL"},
      {"measurement": "MMP9, individual value", "setting": "0.1 µM", "value": "2111 pg/mL and 2616 pg/mL"},
      {"measurement": "CCl2, % reduction", "setting": "0.3 µM", "value": 55, "unit": "%"},
      {"measurement": "CXCL1 % reduction", "setting": "0.3 µM", "value": 32, "unit": "%"},
      {"measurement": "CXCL2 % reduction", "setting": "0.3 µM", "value": 49, "unit": "%"},
      {"measurement": "MMP9 % reduction", "setting": "0.3 µM", "value": 26, "unit": "%"},
      {"measurement": "CCl2, Mean", "setting": "0.3 µM", "value": 591, "unit": "pg/mL"},
      {"measurement": "CXCL1, Mean", "setting": "0.3 µM", "value": 4087, "unit": "pg/mL"},
      {"measurement": "CXCL2, Mean", "setting": "0.3 µM", "value": 2585, "unit": "pg/mL"},
      {"measurement": "MMP9, Mean", "setting": "0.3 µM", "value": 2569, "unit": "pg/mL"},
      {"measurement": "CCl2, individual value", "setting": "0.3 µM", "value": "580 pg/mL and 603 pg/mL"},
      {"measurement": "CXCL1, individual value", "setting": "0.3 µM", "value": "3996 pg/mL and 4178 pg/mL"},
      {"measurement": "CXCL2, individual value", "setting": "0.3 µM", "value": "2570 pg/mL and 2599 pg/mL"},
      {"measurement": "MMP9, individual value", "setting": "0.3 µM", "value": "2679 pg/mL and 2458 pg/mL"},
      {"measurement": "CCl2, % reduction", "setting": "1 µM", "value": 58, "unit": "%"},
      {"measurement": "CXCL1 % reduction", "setting": "1 µM", "value": 32, "unit": "%"},
      {"measurement": "CXCL2 % reduction", "setting": "1 µM", "value": 48, "unit": "%"},
      {"measurement": "MMP9 % reduction", "setting": "1 µM", "value": 46, "unit": "%"},
      {"measurement": "CCl2, Mean", "setting": "1 µM", "value": 551, "unit": "pg/mL"},
      {"measurement": "CXCL1, Mean", "setting": "1 µM", "value": 4042, "unit": "pg/mL"},
      {"measurement": "CXCL2, Mean", "setting": "1 µM", "value": 2659, "unit": "pg/mL"},
      {"measurement": "MMP9, Mean", "setting": "1 µM", "value": 2244, "unit": "pg/mL"},
      {"measurement": "CCl2, individual value", "setting": "1 µM", "value": "591 pg/mL and 510 pg/mL"},
      {"measurement": "CXCL1, individual value", "setting": "1 µM", "value": "4057 pg/mL and 4026 pg/mL"},
      {"measurement": "CXCL2, individual value", "setting": "1 µM", "value": "2573 pg/mL and 2746 pg/mL"},
      {"measurement": "MMP9, individual value", "setting": "1 µM", "value": "2290 pg/mL and 2198 pg/mL"}
    ]}
  ]
}
